These results are taken from US10781420B2, “Method for producing cerebellar progenitor tissue” (RIKEN, priority 2014, dated 2020).

What all share (assay type): cell-based
In one assay the test system is Human ES cells (KhES-1). The assay is described as follows: Differentiation of human ES cell aggregates (SFEBq method) into midbrain-hindbrain boundary neural progenitors. The protocol:
Human ES cells (KhES-1) subjected to maintenance culturing on MEF by a conventional method were used. To differentiate human ES cells by the serum-free floating culture of embryoid body-like aggregates with quick reaggregation (SFEBq method), human ES cells were enzymatically dispersed to single cells, according to the method of Nakano et al. (Cell Stem Cell, 10(6), 771-785, 2012), and reaggregated using a low-cell-adhesive V-bottom 96 well plate (SUMITOMO BAKELITE). 6,000 cells were seeded per well, and cultured in, as a differentiation medium, CDM medium [chemical synthesis medium without a growth factor (growth-factor-free Chemically Defined Medium; gfCDM; Wataya et al., Proc. Natl. Acad. Sci. USA, 105, 11796-11801, 2008) supplemented with insulin (7 μg/ml) and apo-transferrin (15 μg/ml)] under 5% CO2 at 37° C.
The seeding day is taken as day 0 of differentiation culturing. […] […] On day 7, ⅓ of the medium was exchanged with a differentiation medium free of Y-27632, SB431542 and Fgf2. On day 14 of culturing, the medium was completely substituted by a differentiation medium free of Y-27632, SB431542 and FGF2. The cell aggregates were fixed and sliced, and tissue differentiation was analyzed by the immunofluorescence method and quantitative PCR method.

The subject of assay [1] is Human pluripotent stem cell aggregates. The assay is described as follows: Self-formation of cerebellar plate tissue (Kirrel2 positive neuroepithelium) from human pluripotent stem cell aggregates. The protocol:
The was aggregates were transferred to a low-cell-adhesion 10 cm dish on and after day 21, and cultured in a neural culture medium (Neurobasal/GlutaMaxI/N2, all Life Technologies). On day 28 of culturing, the total amount of the medium was exchanged with the same neural culture medium, and differentiation of the tissue was analyzed by the immunofluorescence method on day 35 of culturing.
Separated Kirrel2 positive cells, and cerebellar granule cell progenitors prepared from the upper rhombic lip of embryonic day 14 mouse were dispersed into single cells by cell dispersion enzyme (TrypLE, Life Technologies), and cocultured on a cover glass coated with poly D-lysine/laminin in DMEM/F12/10% FBS medium (5% CO2, 37° C.). In coculture, human pluripotent stem cell-derived Kirrel positive cells (1 vol) relative to mouse-derived cerebellar granule cell progenitors (10 vol) were mixed. After 6-12 hr, DMEM/F12/N2/BSA/Tri-iodothyronine (T3) was added to decrease the FBS concentration to about 0.8%.

Assay [2] has the same test system. Nature of the assay: Formation of cerebellar plate tissue having dorsal-ventral axis pattern by addition of FGF19. On the procedure: Human pluripotent stem cell aggregates were cultured according to the methods of Examples 1 and 2. […] The cells were cultured in a neural culture medium (Neurobasal/GlutaMaxI/N2) on and after day 21. On day 28, the total amount of the medium was exchanged with the same medium, and on day 35, tissue differentiation was analyzed by the immunofluorescence method.

The test system is the same in assay [3]. The assay is described as follows: Formation of rhombic lip and 3 layer structure of cerebellar plate by addition of SDF1. On the procedure:
Human pluripotent stem cell aggregates were cultured according to the method of Example 6. On and after day 21, the cells were cultured in a neural culture medium (Neurobasal/GlutaMaxI/N2). On day 28, the total amount of the medium was exchanged with the same medium, and SDF1 was added at a final concentration of 300 ng/ml. On day 35, differentiation of the tissue was analyzed by the immunofluorescence method.

For assay [4] the test system is unchanged. The assay is described as follows: Formation of rhombic lip in cerebellar plate tissue by addition of GDF7. The protocol:
Human pluripotent stem cell aggregates were cultured according to the method of Example 6. […] The cells were continuously cultured in a neural culture medium (Neurobasal/GlutaMaxI/N2). On day 28, the total amount of the medium was exchanged with the same medium free of GDF7, and on day 35, the cells were analyzed by the immunofluorescence method and the quantitative PCR method.

[5] abbreviates: FGF19 100 ng/ml added on day 14, analysed day 35.
[6] abbreviates: SDF1 300 ng/ml added on day 28, analysed day 35.
[7] abbreviates: GDF7 100 ng/ml added on day 21, day 35, quantitative PCR.
Where [8] appears, read: GDF7 added from day 14 of culturing.

On to `NC(=O)c1ccc(-c2nc(-c3ccc4c(c3)OCO4)c(-c3ccccn3)[nH]2)cc1` [SB431542, 4-(5-benzol[1,3]dioxol-5-yl-4-pyridin-2-yl-1H-imidazol-2-yl)-benzamide, reference compound], for which the “induction of differentiation into neural progenitors” value in the assay on Human ES cells (KhES-1) (SB431542 3 μM) is “induction of differentiation into neural progenitors was also observed”. In the assay on Human ES cells (KhES-1) (SB431542 10-30 μM), the “differentiation into neural progenitors in the midbrain-hindbrain boundary” value is given as “induced differentiation into neural progenitors in the midbrain-hindbrain boundary”.

Regarding `C[C@@H](N)[C@H]1CC[C@H](C(=O)Nc2ccncc2)CC1` [Y-27632, (+)-(R)-trans-4-(1-aminoethyl)-N-(4-pyridyl)cyclohexanecarboxamide, reference compound], the “aggregate formation of human ES cells” value in the assay on Human ES cells (KhES-1) (when Y-27632 was not added) is given as “did not form an aggregate”.

Take `CC1=C2C[C@H]3[C@@H](CC=C4C[C@@H](O)CC[C@@]43C)[C@@H]2CC[C@]12O[C@@H]1C[C@H](C)CN[C@H]1[C@H]2C` [cyclopamine, reference compound]: the “cerebellar plate formation from human pluripotent stem cells” value in assay [1] (Hedgehog inhibitor added) was “did not significantly promote cerebellar plate formation”.

For “FGF19: known cytokine, human ortholog of mouse Fgf15; second fibroblast growth factor”, in assay [2] (FGF19 50 ng/ml), the “effect (frequency) on dorsal-ventral polarity formation relative to that at 100 ng/ml” value is on record as “about ⅓” and the “formation of structure having polarity along the dorsal-ventral axis of neural tube” value is “promoted formation of a structure having polarity along the dorsal-ventral axis of the neural tube”. In assay [2] (setting [5]), the “formation of continuous flat-oval neuroepithelial structure in the cell aggregate” value was “promoted formation of a continuous flat-oval neuroepithelial structure” and the “formation of structure having polarity along the dorsal-ventral axis of neural tube” value was “resulted in the formation of a structure having polarity along the dorsal-ventral axis of neural tube”. Further, in assay [2] (FGF19 300 ng/ml), the “effect (frequency) on dorsal-ventral polarity formation relative to that at 100 ng/ml” value is on record as “of the same level as that at 100 ng/ml” and the “formation of the dorsal-ventral axis pattern” value was “similarly promoted formation of the dorsal-ventral axis pattern”. In addition, in assay [2] (FGF19 added on day 10 of culturing), the “formation of a dorsal-ventral axis pattern” value is on record as “formation of a dorsal-ventral axis pattern was promoted, though the efficiency was low”.

Turning to “SDF1: known chemokine also called CXCL12, secreted ligand for chemokine receptor 4 (CXCR4)”, the “formation of rhombic lip and 3 layer structure of cerebellar plate” value was “promoted formation of rhombic lip and formation of a 3 layer structure of cerebellar plate” in assay [3] (SDF1 100 ng/ml); “promoted formation of rhombic lip and formation of a 3 layer structure of cerebellar plate” in assay [3] (SDF1 500 ng/ml); “an effect similar to that when added from day 28 was observed” in assay [3] (SDF1 added from day 21). Also, in assay [3] (setting [6]), the “configuration of the rhombic lip” value is recorded as “enables continuous configuration of the rhombic lip”. Also, in assay [3] (setting [6]), the “formation of continuous kirrel2 positive neuroepithelial structure” value is on record as “promoted formation of a continuous kirrel2 positive neuroepithelial structure”.

For Sonic Hedgehog, in assay [1] (addition of Sonic Hedgehog to human pluripotent stem cell culturing system), the “formation of polarized cerebellar plate” value is on record as “conversely promotes formation of polarized cerebellar plate”.

As for laminin, the “formation of rhombic lip and 3 layer structure of cerebellar plate” value in assay [3] (used in place of SDF1) is listed as “could not substitute SDF1”.

B1: FGF8: fibroblast growth factor used instead of FGF19 (protein, UniProt P55075 23-233, looked up)
Fibroblast growth factor 8: QEGPGRGPALGRELASLFRAGREPQGVSQQHVREQSLVTDQLSRRLIRTYQLYSRTSGKHVQVLANKRINAMAEDGDPFAKLIVETDTFGSRVRVRGAETGLYICMNKKGKLIAKSNGKGKDCVFTEIVLENNYTALQNAKYEGWYMAFTRKGRPRKGSKTRQHQREVHFMKRLPRGHHTTEQSLRFEFLNYPPFTRSLRGSQRTWAPEPR
Consider B1, for which, in assay [2] (used instead of FGF19), the “formation of a dorsal-ventral axis pattern” value is given as “promoted like FGF19, though the effect was weaker than FGF19”.

B2: GDF7: known cytokine promoting differentiation into cerebellar granule cell progenitors and formation of rhombic lip (protein, UniProt Q7Z4P5 322-450, looked up)
Growth/differentiation factor …: TALAGTRTAQGSGGGAGRGHGRRGRSRCSRKPLHVDFKELGWDDWIIAPLDYEAYHCEGLCDFPLRSHLEPTNHAIIQTLLNSMAPDAAPASCCVPARLSPISILYIDAANNVVYKQYEDMVVEACGCR
Turning to B2, the “expression of Atoh1 positive cell in neural progenitor tissue” value in assay [4] (GDF7 100 ng/ml added on day 21, analysed day 35, immunofluorescence) is recorded as “promoted expression of Atoh1 positive cell”. Also, in assay [4] (setting [7]), the “Atoh1 gene level relative to that by the addition of FGF2 (first comparison printed)” value is “about 220 fold” and the “Atoh1 gene level relative to that by the addition of FGF2 (second comparison printed)” value amounted to 1.5 fold. Besides, in assay [4] (setting [8]), the “growth of cell aggregate” value was “growth of cell aggregate was inhibited” and the “induction of Atoh1 positive cell” value is reported as “Atoh1 positive cell was induced”. Further, the “formation of the rhombic lip” value in assay [4] (GDF7 not removed from the medium on and after day 28) is “adverse influence on the formation of the rhombic lip was not found”.

B3: BMP4: factor known to promote formation of rhombic lip in mouse (protein, UniProt P12644 293-408, looked up)
Bone morphogenetic protein 4: SPKHHSQRARKKNKNCRRHSLYVDFSDVGWNDWIVAPPGYQAFYCHGDCPFPLADHLNSTNHAIVQTLVNSVNSSIPKACCVPTELSAISMLYLDEYDKVVLKNYQEMVVEGCGCR
For B3, the “formation of the rhombic lip from human pluripotent stem cell” value in assay [4] (BMP4 used instead of GDF7) is reported as “could not be induced”.

B4: FGF17: fibroblast growth factor used instead of FGF19 (protein, UniProt O60258 23-216, looked up)
Fibroblast growth factor 17: TQGENHPSPNFNQYVRDQGAMTDQLSRRQIREYQLYSRTSGKHVQVTGRRISATAEDGNKFAKLIVETDTFGSRVRIKGAESEKYICMNKRGKLIGKPSGKSKDCVFTEIVLENNYTAFQNARHEGWFMAFTRQGRPRQASRSRQNQREAHFIKRLYQGQLPFPNHAEKQKQFEFVGSAPTRRTKRTRRPQPLT
For the molecule B4, in assay [2] (used instead of FGF19), the “formation of a dorsal-ventral axis pattern” value was “promoted like FGF19, though the effect was weaker than FGF19”.
